The record followed here is patent US20090099158A1, “TETRAHYDROISOQUINOLINE COMPOUNDS AS MODULATORS OF THE HISTAMINE H3 RECEPTOR” (priority 2007, published 2009).

As usually defined, the Ki is a measure of affinity in units of concentration, obtained from inhibition or displacement. A higher Ki goes with a looser hold on the target.

The target in this test is T1, cloned human H3 receptors (Homo sapiens, UniProt Q9Y5N1).
T1 construct: expressed in transfected cells; host or cells: SK-N-MC cells
Nature of the test: H3 Receptor Binding (Human). As to conditions: cloned human H3 receptors stably expressed in SK-N-MC cells; average of the results obtained. The method, then:
Binding of compounds to the cloned human H3 receptors, stably expressed in SK-N-MC cells, was performed as described by Barbier, A. J. et al. (Br. J. Pharmacol. 2004, 143(5), 649-661). Data for compounds tested in this assay are presented in Table 1 as an average of the results obtained.

T1 sequence (Q9Y5N1 whole entry): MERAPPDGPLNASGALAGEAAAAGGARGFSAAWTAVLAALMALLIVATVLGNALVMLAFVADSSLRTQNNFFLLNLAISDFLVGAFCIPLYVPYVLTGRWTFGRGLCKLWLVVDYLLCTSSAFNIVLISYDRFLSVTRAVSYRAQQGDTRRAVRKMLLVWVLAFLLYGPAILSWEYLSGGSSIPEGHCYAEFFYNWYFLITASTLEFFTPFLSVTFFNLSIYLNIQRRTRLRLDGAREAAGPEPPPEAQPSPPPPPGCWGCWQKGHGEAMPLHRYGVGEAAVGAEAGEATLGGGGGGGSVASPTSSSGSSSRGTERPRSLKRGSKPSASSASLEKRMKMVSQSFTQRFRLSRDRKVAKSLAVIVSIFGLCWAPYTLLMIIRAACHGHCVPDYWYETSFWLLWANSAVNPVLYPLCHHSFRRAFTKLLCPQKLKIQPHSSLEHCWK

`O=C(c1ccc2c(c1)CCN(C(=O)c1cccc(Cl)c1)C2)N1CCN(C2CCCCC2)CC1` [Example 76, [2-(3-Chloro-benzoyl)-1,2,3,4-tetrahydro-isoquinolin-6-yl]-(4-cyclohexyl-piperazin-1-yl)-methanone] displayed a Ki of 0.1 µM.

The compound `O=C(c1ccc2c(c1)CCN(C(=O)c1ccc(Cl)cc1)C2)N1CCN(C2CCCCC2)CC1` [Example 77, [2-(4-Chloro-benzoyl)-1,2,3,4-tetrahydro-isoquinolin-6-yl]-(4-cyclohexyl-piperazin-1-yl)-methanone] registered a Ki of 0.18 µM. This Ki lies about 1.8-fold higher than the previous one.

On to `COc1ccccc1C(=O)N1CCc2cc(C(=O)N3CCN(C4CCCCC4)CC3)ccc2C1` [Example 78, (4-Cyclohexyl-piperazin-1-yl)-[2-(2-methoxy-benzoyl)-1,2,3,4-tetrahydro-isoquinolin-6-yl]-methanone], for which the affinity corresponds to a Ki of 0.07 µM.

As to `COc1cccc(C(=O)N2CCc3cc(C(=O)N4CCN(C5CCCCC5)CC4)ccc3C2)c1` [Example 79, (4-Cyclohexyl-piperazin-1-yl)-[2-(3-methoxy-benzoyl)-1,2,3,4-tetrahydro-isoquinolin-6-yl]-methanone], the affinity corresponds to a Ki of 0.169 µM.

In the case of `N#Cc1cccc(C(=O)N2CCc3cc(C(=O)N4CCN(C5CCCCC5)CC4)ccc3C2)c1` [Example 80], the affinity corresponds to a Ki of 0.07 µM. This Ki is about 2.4-fold lower than that of the compound before.

In turn, `N#Cc1ccc(C(=O)N2CCc3cc(C(=O)N4CCN(C5CCCCC5)CC4)ccc3C2)cc1` [Example 81, 4-[6-(4-Cyclohexyl-piperazine-1-carbonyl)-3,4-dihydro-1H-isoquinoline-2-carbonyl]-benzonitrile] had a Ki of 0.065 µM.

`Cc1ccccc1C(=O)N1CCc2cc(C(=O)N3CCN(C4CCCCC4)CC3)ccc2C1` [Example 82, (4-Cyclohexyl-piperazin-1-yl)-[2-(2-methyl-benzoyl)-1,2,3,4-tetrahydro-isoquinolin-6-yl]-methanone]: the affinity, expressed as Ki, was 0.055 µM. This Ki and that of the compound before are within 1.5-fold of each other.

`Cc1ccc(C(=O)N2CCc3cc(C(=O)N4CCN(C5CCCCC5)CC4)ccc3C2)cc1` [Example 83, (4-Cyclohexyl-piperazin-1-yl)-[2-(4-methyl-benzoyl)-1,2,3,4-tetrahydro-isoquinolin-6-yl]-methanone] yielded a Ki of 0.257 µM.

Consider `CC(C)(C)c1ccc(C(=O)N2CCc3cc(C(=O)N4CCN(C5CCCCC5)CC4)ccc3C2)cc1` [Example 84, [2-(4-tert-Butyl-benzoyl)-1,2,3,4-tetrahydro-isoquinolin-6-yl]-(4-cyclohexyl-piperazin-1-yl)-methanone], for which the affinity, expressed as Ki, was 0.18 µM.

`O=C(c1ccc2c(c1)CCN(C(=O)c1ccccc1)C2)N1CCN(C2CCCCC2)CC1` [Example 85, (2-Benzoyl-1,2,3,4-tetrahydro-isoquinolin-6-yl)-(4-cyclohexyl-piperazin-1-yl)-methanone]: affinity was put at a Ki of 0.118 µM. Compared with the last compound, the Ki is about 1.5-fold lower.

The compound `O=C(c1ccc2c(c1)CCN(C(=O)c1ccccc1F)C2)N1CCN2CCCCC2C1` (stereo not shown) [Example 86, [2-(2-Fluoro-benzoyl)-1,2,3,4-tetrahydro-isoquinolin-6-yl]-(octahydro-pyrido[1,2-a]pyrazin-2-yl)-methanone] showed an inhibition constant (Ki) of 0.027 µM.

As to `O=C(c1cccc(F)c1)N1CCc2cc(C(=O)N3CCN4CCCCC4C3)ccc2C1` (stereo not shown) [Example 87, [2-(3-Fluoro-benzoyl)-1,2,3,4-tetrahydro-isoquinolin-6-yl]-(octahydro-pyrido[1,2-a]pyrazin-2-yl)-methanone], the Ki was determined as 0.023 µM.

For the compound `O=C(c1ccc(F)cc1)N1CCc2cc(C(=O)N3CCN4CCCCC4C3)ccc2C1` (stereo not shown) [Example 88, [2-(4-Fluoro-benzoyl)-1,2,3,4-tetrahydro-isoquinolin-6-yl]-(octahydro-pyrido[1,2-a]pyrazin-2-yl)-methanone], the affinity, expressed as Ki, was 0.024 µM.

Turning to `O=C(c1ccc2c(c1)CCN(C(=O)c1ccccc1Cl)C2)N1CCN2CCCCC2C1` (stereo not shown) [Example 89, [2-(2-Chloro-benzoyl)-1,2,3,4-tetrahydro-isoquinolin-6-yl]-(octahydro-pyrido[1,2-a]pyrazin-2-yl)-methanone], the Ki amounted to 0.021 µM.

On to `O=C(c1cccc(Cl)c1)N1CCc2cc(C(=O)N3CCN4CCCCC4C3)ccc2C1` (stereo not shown) [Example 90, [2-(3-Chloro-benzoyl)-1,2,3,4-tetrahydro-isoquinolin-6-yl]-(octahydro-pyrido[1,2-a]pyrazin-2-yl)-methanone], for which the affinity, expressed as Ki, was 0.019 µM.

Regarding `O=C(c1ccc(Cl)cc1)N1CCc2cc(C(=O)N3CCN4CCCCC4C3)ccc2C1` (stereo not shown) [Example 91, [2-(4-Chloro-benzoyl)-1,2,3,4-tetrahydro-isoquinolin-6-yl]-(octahydro-pyrido[1,2-a]pyrazin-2-yl)-methanone], affinity was put at a Ki of 0.025 µM.

`COc1ccccc1C(=O)N1CCc2cc(C(=O)N3CCN4CCCCC4C3)ccc2C1` (stereo not shown) [Example 92, [2-(2-Methoxy-benzoyl)-1,2,3,4-tetrahydro-isoquinolin-6-yl]-(octahydro-pyrido[1,2-a]pyrazin-2-yl)-methanone] yielded a Ki of 0.023 µM.

Regarding `COc1cccc(C(=O)N2CCc3cc(C(=O)N4CCN5CCCCC5C4)ccc3C2)c1` (stereo not shown) [Example 93, [2-(3-Methoxy-benzoyl)-1,2,3,4-tetrahydro-isoquinolin-6-yl]-(octahydro-pyrido[1,2-a]pyrazin-2-yl)-methanone], the affinity, expressed as Ki, was 0.017 µM.

With `N#Cc1cccc(C(=O)N2CCc3cc(C(=O)N4CCN5CCCCC5C4)ccc3C2)c1` (stereo not shown) [Example 94, 3-[6-(Octahydro-pyrido[1,2-a]pyrazine-2-carbonyl)-3,4-dihydro-1H-isoquinoline-2-carbonyl]-benzonitrile], the Ki was 0.022 µM. The Ki values of the last two compounds are within 1.5-fold of each other.

In the case of `N#Cc1ccc(C(=O)N2CCc3cc(C(=O)N4CCN5CCCCC5C4)ccc3C2)cc1` (stereo not shown) [Example 95, 4-[6-(Octahydro-pyrido[1,2-a]pyrazine-2-carbonyl)-3,4-dihydro-1H-isoquinoline-2-carbonyl]-benzonitrile], the inhibition constant (Ki) is 0.016 µM.

`Cc1ccccc1C(=O)N1CCc2cc(C(=O)N3CCN4CCCCC4C3)ccc2C1` (stereo not shown) [Example 96, [2-(2-Methyl-benzoyl)-1,2,3,4-tetrahydro-isoquinolin-6-yl]-(octahydro-pyrido[1,2-a]pyrazin-2-yl)-methanone] gave a Ki of 0.015 µM.

`Cc1ccc(C(=O)N2CCc3cc(C(=O)N4CCN5CCCCC5C4)ccc3C2)cc1` (stereo not shown) [Example 97, [2-(4-Methyl-benzoyl)-1,2,3,4-tetrahydro-isoquinolin-6-yl]-(octahydro-pyrido[1,2-a]pyrazin-2-yl)-methanone] showed a Ki of 0.038 µM. This Ki lies about 2.5-fold higher than the previous one.

Compound `CC(C)(C)c1ccc(C(=O)N2CCc3cc(C(=O)N4CCN5CCCCC5C4)ccc3C2)cc1` (stereo not shown) [Example 98, [2-(4-tert-Butyl-benzoyl)-1,2,3,4-tetrahydro-isoquinolin-6-yl]-(octahydro-pyrido[1,2-a]pyrazin-2-yl)-methanone] displayed a Ki of 0.038 µM.

`O=C(c1ccccc1)N1CCc2cc(C(=O)N3CCN4CCCCC4C3)ccc2C1` (stereo not shown) [Example 99, (2-Benzoyl-1,2,3,4-tetrahydro-isoquinolin-6-yl)-(octahydro-pyrido[1,2-a]pyrazin-2-yl)-methanone] displayed a Ki of 0.02 µM.

For the compound `CCS(=O)(=O)N1CCc2cc(C(=O)N3CCN(C4CCC4)CC3)ccc2C1` [Example 100, (4-Cyclobutyl-piperazin-1-yl)-(2-ethanesulfonyl-1,2,3,4-tetrahydro-isoquinolin-6-yl)-methanone], the Ki was found to be 0.035 µM.

`CCCS(=O)(=O)N1CCc2cc(C(=O)N3CCN(C4CCC4)CC3)ccc2C1` [Example 101, (4-Cyclobutyl-piperazin-1-yl)-[2-(propane-1-sulfonyl)-1,2,3,4-tetrahydro-isoquinolin-6-yl]-methanone] registered a Ki of 0.034 µM.

On to `CC(C)S(=O)(=O)N1CCc2cc(C(=O)N3CCN(C4CCC4)CC3)ccc2C1` [Example 102, (4-Cyclobutyl-piperazin-1-yl)-[2-(propane-2-sulfonyl)-1,2,3,4-tetrahydro-isoquinolin-6-yl]-methanone], for which the affinity, expressed as Ki, was 0.025 µM.

For the compound `O=C(c1ccc2c(c1)CCN(S(=O)(=O)c1ccccc1)C2)N1CCN(C2CCC2)CC1` [Example 103, (2-Benzenesulfonyl-1,2,3,4-tetrahydro-isoquinolin-6-yl)-(4-cyclobutyl-piperazin-1-yl)-methanone], the affinity, expressed as Ki, was 0.022 µM.

Turning to `O=C(c1ccc2c(c1)CCN(S(=O)(=O)c1ccc(F)cc1)C2)N1CCN(C2CCC2)CC1` [Example 104, (4-Cyclobutyl-piperazin-1-yl)-[2-(4-fluoro-benzenesulfonyl)-1,2,3,4-tetrahydro-isoquinolin-6-yl]-methanone], the Ki turned out to be 0.016 µM.

As to `O=C(c1ccc2c(c1)CCN(C(=O)c1ccc(Cl)cc1)C2)N1CCN(C2CCC2)CC1` [Example 105, [2-(4-Chloro-benzoyl)-1,2,3,4-tetrahydro-isoquinolin-6-yl]-(4-cyclobutyl-piperazin-1-yl)-methanone], the Ki is 0.016 µM. This lies in the double-digit nanomolar range.

In turn, `CC(C)N1CCN(C(=O)c2ccc3c(c2)CCN(C(=O)c2ccsc2)C3)CC1` [Example 106, (4-Isopropyl-piperazin-1-yl)-[2-(thiophene-3-carbonyl)-1,2,34-tetrahydro-isoquinolin-6-yl]-methanone] came in with an inhibition constant (Ki) of 0.017 µM.

Take `CC(C)N1CCN(C(=O)c2ccc3c(c2)CCN(C(=O)c2ccc(O)cc2)C3)CC1` [Example 107, [2-(4-Hydroxy-benzoyl)-1,2,3,4-tetrahydro-isoquinolin-6-yl]-(4-isopropyl-piperazin-1-yl)-methanone]: the Ki was determined as 0.034 µM.

As to `COc1ccc(C(=O)N2CCc3cc(C(=O)N4CCN(C(C)C)CC4)ccc3C2)cc1` [Example 108, (4-Isopropyl-piperazin-1-yl)-[2-(4-methoxy-benzoyl)-1,2,3,4-tetrahydro-isoquinolin-6-yl]-methanone], the Ki was 0.028 µM.

The compound `Cc1ccc(C(=O)N2CCc3cc(C(=O)N4CCN(C(C)C)CC4)ccc3C2)cc1` [Example 109, (4-Isopropyl-piperazin-1-yl)-[2-(4-methyl-benzoyl)-1,2,3,4-tetrahydro-isoquinolin-6-yl]-methanone] gave a Ki of 0.037 µM. The Ki values of the last two compounds are within 1.5-fold of each other.
